Key:
[1] = molecular target: T1, LZK (leucine zipper-bearing kinase) (Homo sapiens, UniProt O43283); test: KdELECT KINOMEscan competition binding assay
T1 construct: gene MAP3K13
T1 sequence (O43283 1-966): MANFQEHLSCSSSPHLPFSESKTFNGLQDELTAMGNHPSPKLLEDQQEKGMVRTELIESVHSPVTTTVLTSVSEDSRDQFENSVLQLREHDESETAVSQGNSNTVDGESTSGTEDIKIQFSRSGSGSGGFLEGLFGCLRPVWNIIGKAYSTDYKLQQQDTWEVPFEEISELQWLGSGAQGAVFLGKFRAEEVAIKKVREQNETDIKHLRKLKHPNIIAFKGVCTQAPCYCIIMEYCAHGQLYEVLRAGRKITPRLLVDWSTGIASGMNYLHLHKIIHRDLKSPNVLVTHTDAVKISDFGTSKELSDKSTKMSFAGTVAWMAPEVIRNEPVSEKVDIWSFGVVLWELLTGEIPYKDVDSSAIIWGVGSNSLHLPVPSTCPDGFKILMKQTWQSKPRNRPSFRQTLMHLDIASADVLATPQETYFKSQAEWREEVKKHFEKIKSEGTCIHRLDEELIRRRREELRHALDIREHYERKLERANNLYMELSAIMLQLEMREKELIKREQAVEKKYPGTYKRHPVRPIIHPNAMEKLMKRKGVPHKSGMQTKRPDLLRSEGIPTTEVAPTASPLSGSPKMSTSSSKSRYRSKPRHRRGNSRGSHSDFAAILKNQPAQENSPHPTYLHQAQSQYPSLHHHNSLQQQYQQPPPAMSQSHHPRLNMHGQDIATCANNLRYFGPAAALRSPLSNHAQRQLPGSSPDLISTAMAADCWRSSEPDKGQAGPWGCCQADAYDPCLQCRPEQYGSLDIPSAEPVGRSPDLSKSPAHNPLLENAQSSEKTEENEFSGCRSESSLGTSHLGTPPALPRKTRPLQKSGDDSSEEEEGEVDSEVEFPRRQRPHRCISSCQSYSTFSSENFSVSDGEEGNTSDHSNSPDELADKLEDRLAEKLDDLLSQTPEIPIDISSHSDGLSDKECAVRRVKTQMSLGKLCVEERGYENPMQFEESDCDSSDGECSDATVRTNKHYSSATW

[2] = molecular target: T1, LZK (leucine zipper-bearing kinase); test: LZK degradation Western blot in CAL33 cells with dox-induced LZK; format: cell-based

Cc1ncsc1-c1ccc([C@H](C)NC(=O)[C@@H]2C[C@@H](O)CN2C(=O)[C@@H](NC(=O)CCCCCCC(=O)N2CCC(c3cc(Nc4cc(C#N)ccn4)nc(N4CCC(F)(F)C4)c3)CC2)C(C)(C)C)cc1 [PROTAC-21A]
Kd [1]: 0.035 µM

N#Cc1ccnc(Nc2cc(C3CCN(C(=O)CCCCCCC(=O)NCCCCNC(=O)CNc4cccc5c4C(=O)N(C4CCC(=O)NC4=O)C5=O)CC3)cc(N3CCC(F)(F)C3)n2)c1 (stereo not shown) [PROTAC-21B]
LZK degradation Western blot in CAL33 cells with dox-induced LZK [2]: PROTAC-21B, PROTAC-21C and PROTAC-21D (Figure 5B) also promoted degradation of LZK at higher concentrations

Cc1ncsc1-c1ccc([C@H](C)NC(=O)[C@@H]2C[C@@H](O)CN2C(=O)[C@@H](NC(=O)c2cncc(C(=O)N3CCC(c4cc(Nc5cc(C#N)ccn5)nc(N5CCC(F)(F)C5)c4)CC3)c2)C(C)(C)C)cc1 [PROTAC-21C]
LZK degradation Western blot in CAL33 cells with dox-induced LZK [2]: PROTAC-21B, PROTAC-21C and PROTAC-21D (Figure 5B) also promoted degradation of LZK at higher concentrations

N#Cc1ccnc(Nc2cc(C3CCN(C(=O)c4cncc(C(=O)NCCCCNC(=O)CNc5cccc6c5C(=O)N(C5CCC(=O)NC5=O)C6=O)c4)CC3)cc(N3CCC(F)(F)C3)n2)c1 (stereo not shown) [PROTAC-21D]
LZK degradation Western blot in CAL33 cells with dox-induced LZK [2]: PROTAC-21B, PROTAC-21C and PROTAC-21D (Figure 5B) also promoted degradation of LZK at higher concentrations

— publication doi:10.1101/2024.11.19.623840, “Targeting GOF p53 and c-MYC through LZK Inhibition or Degradation Suppresses Head and Neck Tumor Growth” (bioRxiv, 2024)
